Assay results published in patent publication US11903961B2, “Hemostatic agent and method of production thereof” (AMRITA VISHWA VIDYAPEETHAM, priority 2020, dated 2024).

System: PPP (coagulation cascade)
Test: PT, aPTT and TT studies on PPP (coagulation analyzer)
Format: biochemical
Conditions: rat PPP incubated 2 min with sample
Description: To confirm the role of third agent (Ca) (130) in the hemostatic composition, PT, a PTT and TT studies were performed using ST art 4, Diagnostica Stago, France. PPP was separated from anti-coagulated rat whole blood by centrifugation. PPP was incubated with the developed hemostatic composition for 2 min. For PT study, PPP from incubated sample was added to PT reagent in a cuvette placed in test area of coagulation analyzer and the time taken for PPP to clot was noted as PT. For a PTT study, PPP from incubated sample was further incubated with a PTT reagent after with cuvette was placed in test area and STA®-CaCl2 0.025M solution was added. Time taken for PPP to clot was noted as a PTT. For TT study, PPP from incubated sample was added to TT reagent in a cuvette placed in test area and the time taken for PPP to clot was noted as TT.

[Ca+2].[Cl-].[Cl-] [third agent, calcium chloride]
shorter: PT | TT | aPTT
